One data set relates to Gli1+ MSC. As to the kind of experiment: Myofibroblast differentiation of Gli1+ MSC in vitro upon TGF-β. Type of data set: cell-based, mouse. The note with it: for αSMA expression: Gli1+ MSC from bone marrow / bone chips or heart.
The test system of data set [1] is 10T1/2 cells. Put plainly: Western blot of whole cell-lysate from 10T1/2 cells treated with darinaparsin. Type of data set: cell-based, mouse. The note with it: darinaparsin 0.5 μM, 72 hours. The source says: All cell-lines used within this study were freshly ordered from ATCC and routinely checked for mycoplasma contamination in the inventors' laboratory. 10T1/2 cells (ATCC) and cultured in Basal Medium Eagle (BME, GIBCO; LIFE TECHNOLOGIES) supplemented with 10% fetal bovine serum (FBS), penicillin and streptomycin and 2 mmol/L glutamine (GIBCO). Sonic hedgehog conditioned media was produced from supernatant of confluent Cos7 cells stably transfected with pcDNA3-N-Shh or pcDNA3 control plasmid. For Western blot experiments cells were grown on 10 cm dishes, serum starved in 0.5% FBS for 12 hours and then incubated with darinaparsin (0.5 μM) or vehicle with either Shh preconditioned medium or Cos7 control media (5× i.e., 2 ml preconditioned media in 8 ml BMW 0.5% FBS) for 72 hours.
Kidney tissue was snap frozen in liquid nitrogen and stored at −80° C. immediately after mice were killed. Tissue samples were homogenized in lysis buffer containing 10 mM HEPES, pH 7.4, 0.32M sucrose, 2 mM EDTA, 1 mM DTT, 1 mM PMSF and 1 protease inhibitor tablet per 10 ml of lysis buffer (ROCHE Cat. No. 11836153001). Samples were sonicated and protein concentration was determined by the Bradford Assay using BIO-RAD Protein Assay Dye (BIORAD, Cat. No. 500-0006). 10-40 μg of protein from lysates was loaded on a 7.5 or 10% polyacrylamide gel and separated by SDS electrophoresis. Proteins were transferred to a IMMOBILON membrane (MILLIPORE) blocked in 5% milk in PBST, probed overnight at 4° C. with the primary antibodies: mouse anti-αSMA at 1:4000 (SIGMA, Cat. #A2547), rabbit anti-fibronectin at 1:4000 (ABCAM, #ab23750), rabbit anti-p21 at 1:200 (SANTA CRUZ BIOTECHNOLOGIES, #sc-471), rabbit anti-phospho-retinoblastoma(72) at 1:1000 (CELL SIGNALING #9307S, Ser780), rat anti-Gli1 at 1:1000 (R&D Systems #MAB3324), goat anti-Gli2 at 1:500 (R&D Systems #AF3635), rabbit anti-Cyclin Eat 1:200 (SANTA CRUZ #sc-481), rabbit anti-Cyclin A at 1:200 (SANTA CRUZ BIOTECHNOLOGIES #sc-751), rabbit anti-HA-Tag at 1:5000 (CELL SIGNALING #3724), mouse anti-c-myc (DSHB, Iowa, 9E 10) and rabbit anti-GAPDH at 1:4000 (BETHYL LABORATORIES, #A300-641A). Following incubation with primary antibody blots were washed probed with respective horseradish-peroxidase conjugated secondary antibodies at 1:5000 (DAKO, Cat. No. P0447, P0448, P0450) for 1 hour at room temperature and then visualized using the Western Lightning ECL kit from PERKINELMER (#NEL100001EA). Quantification of western bands was performed using ImageJ (NIH).

The next data set has as its target T1, Gli2 (Homo sapiens, UniProt P10070).
T1 construct: 293T cells were transfected with full length Gli2-myc and treated with darinaparsin (DAR) or vehicle (VEH); host or cells: Human 293T/17 (HEK 293T/17, ATCC)
As to the kind of experiment: Gli2 darinaparsin binding assay (GST agarose bead pull-down). The note with it: 293T cells; for binding to Gli2 (pull-down of myc-tagged Gli2 with GST beads): 0.5 μM darinaparsin or vehicle. The procedure: Human 293T/17 (HEK 293T/17, freshly ordered from ATCC) were grown in a 10 cm cell-culture dish until 80% confluent and transfected with pCS2-MT Gli2 FL kindly provided by Dr. Roessler (49) (ADDGENE Plasmid 17648: pCS2-MT GLI2 FL) using Lipofectamine 2000 (LIFE TECHNOLOGIES) according to the manufacturer instructions. 72 hours after transfection the cells were treated with 0.5 μM darinaparsin or vehicle in DMEM 10% FBS for 12 hours, thereafter cells were resuspended in cold (4° C.) PBS and washed twice with PBS. After centrifugation (1500 rpm, 5 minutes) 1 ml of IP-Lysis Buffer (THERMO SCIENTIFIC)+proteinase inhibtior (ROCHE, #1183617000T) was added to the cell pellet and the suspension was homogenized using an insulin syringe. After centrifugation of the protein-solution (15 min, 12000 rpm) the supernatant was transferred into a fresh tube, an aliquot of 100 μl was taken as input control (FIG. 24) and the solution was incubated with 50 μl GST-Agarose beads (PIERCE GST Agarose #20211, THERMO SCIENTIFIC) for 4 hours on a rotator at 4° C. Thereafter the bead-protein solution was centrifuged (5000 rpm, 3 min) and the supernatant was taken as outflow control (FIG. 24), the agarose beads were washed three times by adding 1 ml of the above mentioned IP-Lysis buffer containing proteinase inhibitors followed by vortexing and centrifugation (5000 rpm, 3 min), the supernatant after each centrifugation was discarded. After 3 washes, the GST beads were cooked at 96° C. for 7 minutes in 100 μl Laemmli buffer (BIO-RAD). All protein samples (input, outflow and the final GST bead purification solution) were analysed by western blot with an antibody against c-myc (mouse monoclonal, 9E 10, DSHB, Iowa) the membrane was stained with Ponceau-S (SIGMA) to show specificity (FIG. 6H).

Data set [2] relates to 10T1/2 cells. Put plainly: Flow cytometric cell-cycle analysis of 10T1/2 cells. The note with it: for cell-cycle distribution after siRNA knockdown: siRNA 5 nM vs scrambled siRNA. Type of data set: cell-based, mouse.
The next data set deals with UUO kidneys. As to the kind of experiment: Unilateral ureteral obstruction (UUO) kidney fibrosis model. Type of data set: in vivo, mouse.
The subject of data set [3] is ATO resistant myeloma cell-lines. The note with it: cited from earlier work.
In a further data set the test system is kidney. The note with it: mouse, in vivo.
For data set [4] the following is noted: cited from earlier work.
For another data set, the system named is Gli1 and Gli2. The note with it: cited from earlier work.
The test system of a further data set is human colon cancer cells. The note with it: cited from earlier work.
A further data set has as its system lung. The note with it: in vivo; cited from earlier work.
Data set [5] relates to 10T1/2 cells. As to the kind of experiment: siRNA knockdown in 10T1/2 cells, mRNA and protein levels. Type of data set: cell-based, mouse. The procedure: For siRNA experiments cells were transfected with siRNA against Gli1 (LIFE SCIENCES, siRNA ID: s66723, Sequence 5'3' Sense: […] NO: 11), Antisense: […] NO: 12)), Gli2 (LIFE SCIENCES, siRNA ID: s66726, Sequence 5'3' Sense: […] NO: 13), Antisense: […] Transfection was performed with a final concentration of 5 nM of each siRNA according to the manufacturer instructions using LIPOFECTAMINE RNAiMAX transfection reagent (LIFE TECHNOLOGIES, #3778075). 72 hours after transfection cells were harvested for RNA or protein isolation. […] Kidney tissue or cell-pellets were harvested and immediately snap frozen in liquid nitrogen. RNA was extracted according to the manufacturer instructions using the RNeasy Mini Kit (QIAGEN) and 600 ng of total RNA was reverse transcribed with iScript (BIORAD). Quantitative polymerase chain reactions were carried out with iQ-SYBR Green supermix (BIORAD) and the BIORAD CFX96 Real Time System with the C1000 Touch Thermal Cycler. […] Glyceraldehyde-3-phosphate dehydrogenase (GAPDH) was used as a housekeeping gene. Data was analyzed using the 2-ΔΔct method. Kidney tissue was snap frozen in liquid nitrogen and stored at -80° C. immediately after mice were killed. Tissue samples were homogenized in lysis buffer containing 10 mM HEPES, pH 7.4, 0.32M sucrose, 2 mM EDTA, 1 mM DTT, 1 mM PMSF and 1 protease inhibitor tablet per 10 ml of lysis buffer (ROCHE Cat. No. 11836153001). Samples were sonicated and protein concentration was determined by the Bradford Assay using BIO-RAD Protein Assay Dye (BIORAD, Cat. No. 500-0006). 10-40 μg of protein from lysates was loaded on a 7.5 or 10% polyacrylamide gel and separated by SDS electrophoresis. […] Following incubation with primary antibody blots were washed probed with respective horseradish-peroxidase conjugated secondary antibodies at 1:5000 (DAKO, Cat. No. P0447, […]) for 1 hour at room temperature and then visualized using the Western Lightning ECL kit from PERKINELMER (#NEL100001EA). Quantification of western bands was performed using ImageJ (NIH).

Where [6] appears, read: GANT61 after UUO, UUO kidneys vs vehicle.
The mark [7] stands for this setting: GANT61 after UUO, listed as Gant61.
[8] abbreviates: siRNA 5 nM, 72 hours after transfection.

“Also recorded” adds a separate entry of the source.

T1 sequence (P10070 whole entry): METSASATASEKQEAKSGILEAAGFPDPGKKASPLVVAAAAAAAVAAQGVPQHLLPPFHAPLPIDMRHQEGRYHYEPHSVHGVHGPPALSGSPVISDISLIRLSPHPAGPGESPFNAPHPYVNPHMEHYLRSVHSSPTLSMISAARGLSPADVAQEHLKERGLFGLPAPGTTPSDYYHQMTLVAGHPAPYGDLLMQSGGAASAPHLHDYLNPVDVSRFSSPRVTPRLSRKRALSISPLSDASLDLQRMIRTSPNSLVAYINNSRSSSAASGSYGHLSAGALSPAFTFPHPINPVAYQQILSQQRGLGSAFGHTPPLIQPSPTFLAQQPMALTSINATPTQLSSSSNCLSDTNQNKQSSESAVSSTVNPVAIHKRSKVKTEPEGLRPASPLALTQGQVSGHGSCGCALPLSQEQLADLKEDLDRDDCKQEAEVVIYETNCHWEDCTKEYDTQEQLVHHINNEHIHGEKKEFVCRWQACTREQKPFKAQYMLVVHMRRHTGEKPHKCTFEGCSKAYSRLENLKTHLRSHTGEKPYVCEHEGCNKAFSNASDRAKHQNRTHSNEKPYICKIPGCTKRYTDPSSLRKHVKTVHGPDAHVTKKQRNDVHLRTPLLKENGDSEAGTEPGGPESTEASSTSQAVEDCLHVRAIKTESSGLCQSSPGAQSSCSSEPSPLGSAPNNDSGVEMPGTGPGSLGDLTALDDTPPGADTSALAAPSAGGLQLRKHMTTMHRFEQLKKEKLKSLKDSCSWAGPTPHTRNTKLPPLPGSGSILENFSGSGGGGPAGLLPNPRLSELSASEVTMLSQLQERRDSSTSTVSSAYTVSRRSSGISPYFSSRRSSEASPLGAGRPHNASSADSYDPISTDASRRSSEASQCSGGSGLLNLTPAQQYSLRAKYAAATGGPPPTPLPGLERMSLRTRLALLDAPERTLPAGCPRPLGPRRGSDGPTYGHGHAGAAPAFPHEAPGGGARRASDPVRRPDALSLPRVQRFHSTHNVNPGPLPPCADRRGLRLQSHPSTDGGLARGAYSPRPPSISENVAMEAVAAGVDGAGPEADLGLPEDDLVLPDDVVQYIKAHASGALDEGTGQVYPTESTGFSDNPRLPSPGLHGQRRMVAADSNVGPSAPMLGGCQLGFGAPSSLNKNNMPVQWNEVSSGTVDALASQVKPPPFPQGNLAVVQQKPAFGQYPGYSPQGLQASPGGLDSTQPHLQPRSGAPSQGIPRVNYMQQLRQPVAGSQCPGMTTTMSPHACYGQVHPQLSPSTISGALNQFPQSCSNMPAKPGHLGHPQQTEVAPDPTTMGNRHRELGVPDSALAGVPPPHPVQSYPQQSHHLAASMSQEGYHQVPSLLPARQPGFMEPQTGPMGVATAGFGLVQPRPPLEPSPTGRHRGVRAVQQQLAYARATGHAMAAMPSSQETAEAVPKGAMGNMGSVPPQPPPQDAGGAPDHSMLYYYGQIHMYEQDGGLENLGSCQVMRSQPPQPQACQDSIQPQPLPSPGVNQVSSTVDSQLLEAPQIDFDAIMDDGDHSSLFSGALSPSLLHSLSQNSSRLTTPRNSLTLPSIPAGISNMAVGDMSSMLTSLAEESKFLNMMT

TGF-β: the αSMA expression result in the data set on Gli1+ MSC is recorded as “acquired expression”; in the data set with Gli1+ MSC (listed as TGFβ), “robust upregulation”. Moreover, in the data set with Gli1+ MSC (bone marrow-derived Gli1+ MSC purified by FACS), the “induction of αSMA” value came out at 45 ×.

Regarding `C[As](C)SC[C@H](NC(=O)CC[C@H](N)C(=O)O)C(=O)NCC(=O)O` [darinaparsin, S-dimethylarsino-glutathione], in the data set with 10T1/2 cells [1], the Gli1 protein level entry is recorded as “reduced”, the Gli2 protein level result is given as “reduced”, the p21 level entry was “upregulation” and the p-Rb level entry is “decreased levels”. Further, the “enrichment of other nonspecific proteins (Ponceau staining)” value on Gli2 (0.5 μM darinaparsin) was “did not result in enrichment”. The “binding to Gli2 (pull-down of myc-tagged Gli2 with GST beads)” value at Gli2 is recorded as “binds directly to Gli2”. At Gli2 (listed as DAR), the “binding to Gli2 (pull-down of myc-tagged Gli2 with GST beads)” value was “able to pull down Gli2”. The “cell-cycle effect of darinaparsin upon Gli2 overexpression” value in the data set on 10T1/2 cells [2] (10T1/2 cells with retroviral full-length Gli2 vs control virus) is “rescued the cell-cycle effect; also recorded: rescues the cell cycle effect”. In addition, the “cell-cycle distribution of 10T1/2 cells” value in the data set with 10T1/2 cells [2] (darinaparsin 0.5 μM vs vehicle, BrdU/7AAD flow cytometry) is listed as “induces a G0/G1 cell cycle arrest”. Further, the fibrotic readouts entry in the data set with UUO kidneys (mouse, in vivo) is reported as “substantial reductions”. In addition, the “susceptibility of ATO resistant myeloma cell-lines” value in [3] is “susceptible”. Further, in the data set on kidney, the BUN levels entry is listed as “lower” and the interstitial fibrosis result is reported as “reduced”. For the same molecule, the systemic toxicity entry in data set [4] (compared to ATO) is “significantly lower”. For the same molecule, the “tolerated maximum dose compared to ATO” value in [4] (higher than ATO) is 50 fold. Besides, the “side effect on fast cycling cell populations as the bone marrow or intestine” value in data set [4] (reported by Tian et al.) is “no significant side effect”.

For the molecule Arsenic trioxide [ATO], in the data set with Gli1 and Gli2, the “antagonism of Gli1 and Gli2” value was “antagonize both Gli1 and Gli2”.

For `CN(C)c1ccccc1CN1CCCN(Cc2ccccc2N(C)C)C1c1ccncc1` [GANT61], in the data set on human colon cancer cells, the “cell cycle of human colon cancer cells” value is given as “induced a G0/G1 arrest” and the “p21 in human colon cancer cells” value is given as “upregulation”. In addition, the “fibrosis severity in bleomycin induced lung fibrosis” value in the data set on lung was “decreased fibrosis severity”. Moreover, the “interstitial fibrosis (scoring of trichrome stained sections)” value in the data set with UUO kidneys (GANT61 50 mg/kg s.c. at day 1, 2, 3, 5, 7 and 9 after UUO, vs vehicle, 50 mg/kg) is “significantly reduced; also recorded: significantly less fibrosis”. Besides, in the data set on UUO kidneys (GANT61 after UUO), the “Gli1 protein level of UUO kidneys” value is listed as “significantly reduced”, the “Gli2 protein level of UUO kidneys” value is listed as “significantly reduced”, the “mRNA expression of hedgehog readout Gli1” value is recorded as “reduced” and the “mRNA expression of hedgehog readout Ptch1” value is reported as “reduced”. Further, in the data set with UUO kidneys (setting [6]), the “expression of fibrotic readout Coiled” value is “significantly reduced; also recorded: significant lower expression”, the “expression of fibrotic readout fibronectin” value is recorded as “significantly reduced; also recorded: significant lower expression” and the “expression of fibrotic readout α-SMA” value is on record as “significantly reduced; also recorded: significant lower expression”. For the same molecule, in the data set with UUO kidneys (setting [7]), the “mRNA expression of hedgehog readout Gli1” value is reported as “significant reduction” and the “mRNA expression of hedgehog readout Ptch1” value is “significant reduction”.

Regarding `CS(=O)(=O)c1ccc(C(=O)Nc2ccc(Cl)c(-c3ccccn3)c2)c(Cl)c1` [GDC-0449], the “fibrosis severity in bleomycin induced lung fibrosis” value in the data set with lung is “did not show this effect”.

Turning to “siRNA directed against Gli2: siRNA ID s66726, SEQ ID NO: 13 and 14 (chain 1 GGAAAACUUCAACAAUACATT; chain 2 UGUAUUGUUGAAGUUUUCCAG; chemistry not given here)”, in the data set on 10T1/2 cells [5] (setting [8]), the Gli2 expression entry was “reduced”; the “mRNA and protein levels of Gli1” value was “reduced”. Besides, in the data set with 10T1/2 cells [5] (siRNA knockdown, western blot), the p21 level entry is listed as “increased levels” and the “phosphorylated retinoblastoma (Ser780) level” value is reported as “reduced levels”. Besides, the “cell-cycle distribution after siRNA knockdown” value in the data set with 10T1/2 cells [2] is “G0/G1 arrest”.

With “siRNA against Gli1: siRNA ID s66723, SEQ ID NO: 11 and 12 (chain 1 GCAGGUCUCCUAUCCUGAUTT; chain 2 NAUCAGGAUAGGAGACCUGCTG; chemistry not given here)”, in the data set with 10T1/2 cells [5] (setting [8]), the “mRNA and protein levels of Gli1” value was “reduced”. Also, in the data set on 10T1/2 cells [2], the “cell-cycle distribution after siRNA knockdown” value is on record as “had no effect”.
